Measured values published in patent US9284283B2, “Macrocyclic compounds for modulating IL-17” (ENSEMBLE THERAPEUTICS CORPORATION, priority 2012, dated 2016).
Where “and” joins values, the source holds several entries; their conditions need not be identical. Identical values can stand only once.

Columns and labels:
[1] = tested on: DNFB-treated BALB/c mice; assay: Murine model of delayed hypersensitivity (DNFB-induced ear edema); type: in vivo, mouse; details: for Reduction in edema (%): ear weight 24 h after DNFB challenge
Procedure: We used a murine model of fluorodinitrobenzene (DNFB)-induced ear edema to test the anti-inflammatory activity of both orally dosed and intraperitoneally dosed exemplary compounds of the invention. BALB/c mice (Harlan Sprague-Dawley, Inc., male, 6-8 weeks old) were topically treated on their shaved abdomen with 30 μL of 0.5% 1-fluoro-2,4-dinitrobenzene (DNFB) (4:1 acetone:olive oil) once on Day 0 and once on Day 1.
For oral dosing (“PO”), exemplary compounds of the invention were either suspended at 3 mg/mL in 20% Cremophor EL (Sigma) (20:80; Cremophor:water) or dissolved at 1 mg/mL or 3 mg/mL in D-α-tocopherol polyethylene glycol 1000 succinate (TPGS; Sigma)/PEG-400/water (20:60:20). For intraperitoneal dosing (“IP”), exemplary compounds of the invention were dissolved in DMSO at a concentration of 5 mg/mL. On day 7, the test compound was administered (PO at either 10 mg/kg or 30 mg/kg; IP at 1, 3, or 10 mg/kg) to DNFB-treated mice. Commercially available anti-mouse IL-17A (BioLegend) administered intraperitoneally at 5 mg/kg in PBS was used as a positive control. Thirty minutes later, 20 μL of 0.2% DNFB was applied to the right ear of animals and vehicle ([…]:olive oil) was applied to the left ear. One and four hours after DNFB challenge, a subset of mice was exsanguinated and plasma prepared from the blood. Twenty-four hours after challenge, the remaining mice were euthanized, and their ears were removed and weighed to determine the amount of edema. Plasma was assayed for interleukin-6, TNF-α, CXCL1, and interferon-γ concentrations using commercially-available assays.

[2] = tested on: murine collagen-induced arthritis; assay: Mouse collagen-induced arthritis (CIA) model; type: in vivo; details: for reduction of overall mean Clinical Arthritis Score: FIG. 11
Procedure: Exemplary compounds of the invention were evaluated in a murine CIA model. […] mice (10/group) were anaesthetized with Isoflurane, shaved at the base of the tail, and injected intradermally with 150 μL of Freund's Complete Adjuvant (Sigma) containing bovine type II collagen (Elastin Products, Owensville, Mo.) (2 mg/mL) at the base of the tail on day 0 and again on day 21. On study days 24-25, onset of arthritis occurred and mice were randomized into treatment groups. Randomization into each group was done after swelling was obviously established in at least one paw (score of 1), and attempts were made to ensure approximately equal mean scores of 0.25 across the groups at the time of enrollment. Once a day oral treatment with 10 or 30 mg/kg of test compound in 20% Cremophor EL was initiated after enrollment and continued once a day as indicated through arthritis day 10. Mice were terminated on day 11. Clinical scores were calculated for each of the paws (right front, left front, right rear, and left rear) on arthritis days 1-11 and the results were summarized as a reduction in clinical arthritis score for all paws over the time period of dosing.

Structure (SMILES): O=C1CNC(=O)[C@@H](Cc2ccc(NC(=O)[C@H](Cc3ccccc3Cl)NC(=O)Cc3ccccc3)cc2)NC(=O)CC2(CCCC2)CC(=O)NCCCCCN1 [Compound 159]
- reduction in TNF-α, IFN-γ and edema as compared to a PBS control or DMSO control ([1]; i.p. 10 mg/kg, FIG. 1): statistically significant reduction
- reduction in IL-6, IFN-γ and edema compared to a DMSO control ([1]; i.p. at 1 mg/kg, 3 mg/kg, or 10 mg/kg, FIG. 2): statistically significant reduction
- Reduction in edema (%) ([1]; ip, 1 mg/kg): 17%
- IFNγ Reduction (%) ([1]; ip, 1 mg/kg, plasma): 54.2%
- IL6 Reduction (%) ([1]; ip, 1 mg/kg, plasma): 62.6%
- Reduction in edema (%) ([1]; ip, 3 mg/kg): 44%
- IFNγ Reduction (%) ([1]; ip, 3 mg/kg, plasma): 85.5%
- IL6 Reduction (%) ([1]; ip, 3 mg/kg, plasma): 72.2%
- Reduction in edema (%) ([1]; ip, 10 mg/kg): 54.1% and 54%
- IL6 Reduction (%) ([1]; ip, 10 mg/kg, plasma): 78.6%
- TNFα Reduction (%) ([1]; ip, 10 mg/kg, plasma): 21.7%
- IL-6, IFN-γ, and edema, dose-dependent ([1]; orally dosed in TPGS/PEG400/Water vehicle, FIG. 5): effectively reduced
- Reduction in edema (%) ([1]; po, 10 mg/kg): 19.0%
- IFNγ Reduction (%) ([1]; po, 10 mg/kg, plasma): 24.2%
- IL6 Reduction (%) ([1]; po, 10 mg/kg, plasma): 29.8%
- Reduction in edema (%) ([1]; po, 30 mg/kg): 53.7%
- IFNγ Reduction (%) ([1]; po, 30 mg/kg, plasma): 64.5%
- IL6 Reduction (%) ([1]; po, 30 mg/kg, plasma): 58.3%
- reduction of overall mean Clinical Arthritis Score ([2]; orally 10 mg/kg): 6%
- reduction of overall mean Clinical Arthritis Score ([2]; orally 30 mg/kg): 11%
- reduction in mean Clinical Arthritis Score on days 27-30 as compared to vehicle controls ([2]; orally 10 and 30 mg/kg in 20% Cremophor EL, FIG. 10): superior reduction
